From PubChem BioAssay AID2060342 (Molecular Pharmacology Branch, DTP, NCI, 2025)
Several values for one entry are separate records, joined by “and”; a condition that tells them apart may be missing. Equal entries are not always repeated. Each block holds one molecule with its values, some of them ahead of it.

Tested on: 171881-019-R-J1-PDC multicell spheroid viability
Test: Anticancer human tumor 171881-019-R-J1-PDC patient-derived invasive breast carcinoma cell line growth inhibition [IpAb]
Conditions: for viability, T/C: stronger effect = lower value
Description: Combinatorial screen of targeted agents with ipatasertib and abemaciclib in multi-cell type tumor spheroids
A high-throughput screen of multi-cell type tumor spheroids was designed to identify active combinations of targeted small molecules and ipatasertib or abemaciclib. Complex spheroids include a stromal component modeled by human endothelial cells (HUVEC) and fibroblasts modeled by human mesenchymal stem cells (MSCs). The concentration ranges selected for each drug and investigational agent were based upon clinically achievable concentrations if the clinical Cmax of the agent was known.
Compounds. The drugs and investigational agents: ipatasertib (NSC767898), abemaciclib(NSC768073), selumetinib (NSC741078), trametinib (758246), adavosertib (NSC754352), everolimus (NSC733504), sapanisertib (NSC764658), vemurafenib (NSC761431), venetoclax (NSC766270), copanlisib (NSC809693), apelisib (NSC765974), palbociblib (NSC758247), vemurafenib (NSC761431), dabrafenib (NSC764134), ravoxertinib (NSC781343), BMS-387032 (NSC767048), sotorasib (NSC818433), talazoparib (NSC767125) and afursertib (NSC778305), were obtained from the National Cancer Institute (NCI) Developmental Therapeutics Program Chemical Repository. The FDA-approved anticancer drug set is available from the NCI Developmental Therapeutics Program. […] The stock solutions were prepared in dimethyl sulfoxide (DMSO, Sigma-Aldrich, St. Louis, MO, cat. D2650) at 800-fold the tested concentration and stored at -70 degrees C prior to their use. All drugs and investigational agents were tested over a range starting from a high concentration at or near the clinical Cmax and decreasing in half-log increments. If the clinical Cmax for an agent had not been determined, the highest concentration tested was 10 microM.
NCI60 Cell Culture. NCI60 cell lines were obtained from the NCI Developmental Therapeutics Program Tumor Repository. For each lot of cells, the Repository performed Applied Biosystems AmpFLSTR Identifiler testing with PCR amplification to confirm consistency with the published Identifier STR profile for each cell line. Cells were kept in continuous culture for no more than 20 passages. The optimal seeding densities for each of the cell lines at each time point assessed were determined prior to performing the concentration response studies. Briefly, the NCI60 human tumor lines were grown as monolayers in RPMI 1640 medium supplemented with 10% FBS and 2 mmol/L L-glutamine.
An additional 9 lines were from the NCI60 cell line panel including MDA-MB-231 breast carcinoma, MDA-MB-468 breast carcinoma, MCF7 breast carcinoma, Hs578T breast carcinoma, MALME-3M melanoma, SK-MEL-2 melanoma, SK-OV-3 ovarian carcinoma, DU-145 prostate carcinoma, PC-3 prostate carcinoma, all cell lines along with major genetic alterations are listed on Table 2. Pooled donor human umbilical vein endothelial cells (HUVEC, Lonza, cat. CC-2519) and human mesenchymal stem cells (hMSC, Lonza, cat. PT-2501) were purchased from Lonza (Walkersville, MD).
PDMR cell lines were grown in complete medium (DC medium): Dulbecco's modified Eagle's medium (DMEM)/F12 supplemented with 5% fetal bovine serum (FBS), 2 mM L-glutamine, 100 U/mL penicillin and 100 µg/ml streptomycin, 0.4 µg/ml hydrocortisone, 10 ng/ml epidermal growth factor (EGF) recombinant human protein, 24 µg/mL adenine, and 0.1 mg/mL primocin. During culture from frozen stock vials, PDMR cells were cultured in the same medium containing 10 µM Y-27632 (see Table 3). The PDCs were cultured in complete DMEM/F12 media without 10 microM Y-27632 dihydrochloride for at least two passages prior to the screen. The pooled donor HUVEC and hMSC were cultured in endothelial cell growth medium 2 (PromoCell, Heidelberg, Germany, cat. C-22011) and mesenchymal stem cell growth medium 2 (PromoCell, cat. C-28009), respectively. For all experiments, HUVEC and hMSC were used at passages </=5.
[…]
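Further: spheroids exposed to the agents for seven days before readout.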

SMILES: Cn1cnc2c(F)c(Nc3ccc(Br)cc3Cl)c(C(=O)NOCCO)cc21
viability, T/C (compound 0.00949 µM): 113% and 108% | viability, T/C (compound 0.03 µM): 106% and 96.2% | viability, T/C (compound 0.0949 µM): 124% and 98% | viability, T/C (compound 0.3 µM): 117% and 99.3% | viability, T/C (compound 0.949 µM): 70.1% and 49.4% | viability, T/C (compound 3 µM): 18.2% and 11.6% | IC50 (curve of compound): 1480 nM and 935 nM

SMILES: Cn1nccc1Nc1nccc(-c2ccn(C(CO)c3ccc(Cl)c(F)c3)c(=O)c2)n1 (stereo not given)
viability, T/C (compound 0.0316 µM): 107% and 117% | viability, T/C (compound 0.1 µM): 108% and 112% | viability, T/C (compound 0.316 µM): 77.1% and 79% | viability, T/C (compound 1 µM): 39.2% and 41.8% | viability, T/C (compound 3.16 µM): 22.2% and 22.1% | viability, T/C (compound 10 µM): 19.1% and 18.8% | IC50 (curve of compound): 713 nM and 761 nM

SMILES: Cn1cnc2c(F)c(Nc3ccc(Br)cc3Cl)c(C(=O)NOCCO)cc21 + CC(C)NCC(C(=O)N1CCN(c2ncnc3c2C(C)CC3O)CC1)c1ccc(Cl)cc1
IC50 (curve of first compound, second compound 0.1 µM): 540 nM | IC50 (curve of first compound, second compound 0.316 µM): 188 nM | IC50 (curve of first compound, second compound 1 µM): < 9.49 nM | IC50 (curve of first compound, second compound 3.16 µM): < 9.49 nM | IC50 (curve of first compound, second compound 10 µM): < 9.49 nM | viability, T/C (second compound 0.1 µM, first compound 0.00949 µM): 122% | viability, T/C (second compound 0.1 µM, first compound 0.03 µM): 125% | viability, T/C (second compound 0.1 µM, first compound 0.0949 µM): 107% | viability, T/C (second compound 0.1 µM, first compound 0.3 µM): 75.1% | viability, T/C (second compound 0.1 µM, first compound 0.949 µM): 26.3% | viability, T/C (second compound 0.1 µM, first compound 3 µM): 8.66% | viability, T/C (second compound 0.316 µM, first compound 0.00949 µM): 72.7% | viability, T/C (second compound 0.316 µM, first compound 0.03 µM): 69.6% | viability, T/C (second compound 0.316 µM, first compound 0.0949 µM): 62.4% | viability, T/C (second compound 0.316 µM, first compound 0.3 µM): 41.9% | viability, T/C (second compound 0.316 µM, first compound 0.949 µM): 14.2% | viability, T/C (second compound 0.316 µM, first compound 3 µM): 4.26% | viability, T/C (second compound 1 µM, first compound 0.00949 µM): 24.5% | viability, T/C (second compound 1 µM, first compound 0.03 µM): 26.6% | viability, T/C (second compound 1 µM, first compound 0.0949 µM): 21.2% | viability, T/C (second compound 1 µM, first compound 0.3 µM): 13.3% | viability, T/C (second compound 1 µM, first compound 0.949 µM): 4.61% | viability, T/C (second compound 1 µM, first compound 3 µM): 1.63% | viability, T/C (second compound 3.16 µM, first compound 0.00949 µM): 8.87% | viability, T/C (second compound 3.16 µM, first compound 0.03 µM): 7.75% | viability, T/C (second compound 3.16 µM, first compound 0.0949 µM): 5.99% | viability, T/C (second compound 3.16 µM, first compound 0.3 µM): 5.01% | viability, T/C (second compound 3.16 µM, first compound 0.949 µM): 1.73% | viability, T/C (second compound 3.16 µM, first compound 3 µM): 0.77% | viability, T/C (second compound 10 µM, first compound 0.00949 µM): 5.26% | viability, T/C (second compound 10 µM, first compound 0.03 µM): 3.72% | viability, T/C (second compound 10 µM, first compound 0.0949 µM): 3.22% | viability, T/C (second compound 10 µM, first compound 0.3 µM): 1.9% | viability, T/C (second compound 10 µM, first compound 0.949 µM): 1.16% | viability, T/C (second compound 10 µM, first compound 3 µM): 0.44%

The next lines start with results.

IC50 (curve of compound): 734 nM and 640 nM
SMILES: Cc1nc(NC(=O)N2CCCC2C(N)=O)sc1-c1ccnc(C(C)(C)C(F)(F)F)c1 (stereo not given)
viability, T/C (compound 0.0316 µM): 117% and 108% | viability, T/C (compound 0.1 µM): 128% and 98.1% | viability, T/C (compound 0.316 µM): 84.2% and 67.8% | viability, T/C (compound 1 µM): 36.8% and 38.8% | viability, T/C (compound 3.16 µM): 16.5% and 12.6% | viability, T/C (compound 10 µM): 2.78% and 1.93%

IC50 (curve of compound): 163 nM and 167 nM
SMILES: Cn1ncc(Cl)c1-c1cc(C(=O)NC(CN)Cc2cccc(F)c2)sc1Cl (stereo not given)
viability, T/C (compound 0.0316 µM): 107% and 112% | viability, T/C (compound 0.1 µM): 64.8% and 67.2% | viability, T/C (compound 0.316 µM): 29.7% and 27.4% | viability, T/C (compound 1 µM): 11.8% and 13.5% | viability, T/C (compound 3.16 µM): 3.57% and 3.17% | viability, T/C (compound 10 µM): 0.84% and 0.66%

IC50 (curve of compound): > 100 nM
SMILES: Cn1ncnc1[C@H]1c2n[nH]c(=O)c3cc(F)cc(c23)N[C@@H]1c1ccc(F)cc1
viability, T/C (compound 0.000316 µM): 100% and 93.4% | viability, T/C (compound 0.001 µM): 111% and 93.9% | viability, T/C (compound 0.00316 µM): 116% | viability, T/C (compound 0.01 µM): 108% and 101% | viability, T/C (compound 0.0316 µM): 109% and 111% | viability, T/C (compound 0.1 µM): 128% and 123%
